Results reported in patent US8653070B2, “Hepatitis C virus inhibitors” (Enanta Pharmaceuticals, Inc., priority 2009, dated 2014).
Like-named read-outs stand apart in the source and are kept apart here.

System: HCV 1b genotype replicon
Experiment: HCV replicon assay (qRT-PCR or luciferase), genotype-1b replicon
Format: cell-based
Details: Hepatitis C virus, HCV 1b replicon
Excerpt: HCV replicon cell lines (kindly provided by R. Bartenschlager) isolated from colonies as described by Lohman et. al. (Lohman et al. (1999) Science 285: 110-113, expressly incorporated by reference in its entirety) and used for all experiments. The HCV replicon has the nucleic acid sequence set forth in EMBL Accession No.: AJ242651, the coding sequence of which is from nucleotides 1801 to 8406.
The coding sequence of the published HCV replicon was synthesized and subsequently assembled in a modified plasmid pBR322 (Promega, Madison, Wis.) using standard molecular biology techniques. One replicon cell line (“SGR 11-7”) stably expresses HCV replicon RNA which consists of (i) the HCV 5′UTR fused to the first 12 amino acids of the capsid protein, (ii) the neomycin phosphotransferase gene (neo), (iii) the IRES from encephalomyocarditis virus (EMCV) and (iv) HCV NS2 to NS5B genes and the HCV 3′UTR. Another replicon cell line (“Huh-luc/neo-ET”) described by Vrolijk et. al. (Vrolijk et. al. (2003) Journal of Virological Methods 110:201-209, expressly incorporated by reference in its entirety) stably expresses HCV replicon RNA which consists of (i) the HCV 5′UTR fused to the first 12 amino acids of the capsid protein, (ii) the firefly luciferase reporter gene, (iii) the ubiquitin gene, (iv) the neomycin phosphotransferase gene (neo), (v) the IRES from encephalomyocarditis virus (EMCV) and (vi) HCV NS3 to NS5B genes that harbor cell culture adaptive mutations (E1202G, T12801, K1846T) and the HCV 3′UTR.
These cell lines are maintained at 37° C., 5% CO2, 100% relative humidity in DMEM (Cat#11965-084, Invitrogen), with 10% fetal calf serum (“FCS”, Invitrogen), 1% non-essential amino acids (Invitrogen), 1% of Glutamax (Invitrogen), 1% of 100× penicillin/streptomycin (Cat#15140-122, Invitrogen) and Geneticin (Cat#10131-027, Invitrogen) at 0.75 mg/ml or 0.5 mg/ml for 11-7 and Huh-luc/neo-ET cells, respectively.
EC50 values of single agent compounds and combinations are determined by HCV RNA detection using quantitative RT-PCR, according to the manufacturer's instructions, with a TAQMAN® One-Step RT-PCR Master Mix Reagents Kit (Cat# AB 4309169, Applied Biosystems) on an ABI Model 7500 thermocycler. The TAQMAN primers to use for detecting and quantifying HCV RNA obtained from Integrated DNA Technologies. HCV RNA is normalized to GAPDH RNA levels in drug-treated cells, which is detected and quantified using the Human GAPDH Endogenous Control Mix (Applied Biosystems, AB 4310884E). Total cellular RNA is purified from 96-well plates using the RNAqueous 96 kit (Ambion, Cat# AM1812). Chemical agent cytotoxicity is evaluated using an MTS assay according to the manufacturer's directions (Promega).
Since clinical drug resistance often develops in viral infections following single agent therapies, there is a need to assess the additive, antagonistic, or synergistic properties of combination therapies. We used the HCV replicon system to assess the potential use of the compound of the present invention or in combination therapies with Interferon alpha, cyclosporine analogs and inhibitors targeting other HCV proteins. The acute effects of a single or combinations of drugs are studied in the “Huh-luc/neo-ET” replicon with each chemical agent titrated in an X or Y direction in a 6 point two-fold dilution curve centered around the EC50 of each drug. Briefly, replicon cells are seeded at 7,000 cells per well in 90 ul DMEM (without phenol red, Invitrogen Cat.#31053-036) per well with 10% FCS, 1% non-essential amino acids, 1% of Glutamax and 1% of 100× penicillin/streptomycin and incubated overnight at 37° C., 5% CO2, 100% relative humidity. […]

[1] = read-out: Genotype-1b replicon EC50
[2] = read-out: Genotype-1b replicon EC50 Range

Structure (SMILES)	EC50 [1] [nM]	EC50 [2] [nM]
C=C1C[C@@H](c2nc3cc(C#Cc4ccc(-c5c[nH]c([C@@H]6CCCN6C(=O)[C@@H](NC(=O)OC)C(C)C)n5)cc4)ccc3[nH]2)N(C(=O)[C@@H](NC(=O)OC)C(C)C)C1 [Example 83]	0.0057	< 0.01
C=C1C[C@@H](c2nc(-c3ccc(-c4ccc(-c5c[nH]c([C@@H]6CCCN6C(=O)[C@@H](NC(=O)OC)C(C)C)n5)cc4)cc3)c[nH]2)N(C(=O)[C@@H](NC(=O)OC)C(C)C)C1 [Example 252]	0.0112	0.01 to 1
C=C1C[C@@H](c2nc(-c3ccc(C#Cc4ccc5[nH]c([C@@H]6CCCN6C(=O)[C@@H](NC(=O)OC)C(C)C)nc5c4)cc3)c[nH]2)N(C(=O)[C@@H](NC(=O)OC)C(C)C)C1 [Example 300]	0.0044	< 0.01
CON=C1C[C@@H](c2nc3cc(C#Cc4ccc(-c5c[nH]c([C@@H]6CCCN6C(=O)[C@@H](NC(=O)OC)C(C)C)n5)cc4)ccc3[nH]2)N(C(=O)[C@@H](NC(=O)OC)C(C)C)C1 [Example 316]		< 0.01
C=C1C[C@@H](c2nc(-c3ccc(C#Cc4ccc5[nH]c([C@@H]6C[C@@]7(CCCO7)CN6C(=O)[C@@H](NC(=O)OC)C(C)C)nc5c4)cc3)c[nH]2)N(C(=O)[C@@H](NC(=O)OC)C(C)C)C1 [Example 319]		0.01 to 1
C=C1C[C@@H](c2nc(-c3ccc(C#Cc4ccc5[nH]c([C@@H]6C[C@@]7(CCOC7)CN6C(=O)[C@@H](NC(=O)OC)C(C)C)nc5c4)cc3)c[nH]2)N(C(=O)[C@@H](NC(=O)OC)C(C)C)C1 [Example 321]		0.01 to 1
C=C1C[C@@H](c2nc(-c3ccc(C#Cc4ccc5[nH]c([C@@H]6C[C@]7(CCOC7)CN6C(=O)[C@@H](NC(=O)OC)C(C)C)nc5c4)cc3)c[nH]2)N(C(=O)[C@@H](NC(=O)OC)C(C)C)C1 [Example 323]	0.0092	< 0.01
C=C1C[C@@H](c2nc(-c3ccc(C#Cc4ccc5[nH]c([C@@H]6CC7(CC7)CN6C(=O)[C@@H](NC(=O)OC)C(C)C)nc5c4)cc3)c[nH]2)N(C(=O)[C@@H](NC(=O)OC)C(C)C)C1 [Example 325]	0.0059	< 0.01
C=C1C[C@@H](c2nc(-c3ccc(C#Cc4ccc5[nH]c([C@@H]6C[C@@]7(CC=CCO7)CN6C(=O)[C@@H](NC(=O)OC)C(C)C)nc5c4)cc3)c[nH]2)N(C(=O)[C@@H](NC(=O)OC)C(C)C)C1 [Example 327]		< 0.01
C=C1C[C@@H](c2nc(-c3ccc(C#Cc4ccc5[nH]c([C@@H]6C[C@]7(CCCOC7)CN6C(=O)[C@@H](NC(=O)OC)C(C)C)nc5c4)cc3)c[nH]2)N(C(=O)[C@@H](NC(=O)OC)C(C)C)C1 [Example 329]		< 0.01
C=C1C[C@@H](c2nc(-c3ccc(C#Cc4ccc5[nH]c([C@@H]6C[C@@]7(CCCOC7)CN6C(=O)[C@@H](NC(=O)OC)C(C)C)nc5c4)cc3)c[nH]2)N(C(=O)[C@@H](NC(=O)OC)C(C)C)C1 [Example 331]	0.0137	0.01 to 1
COC(=O)N[C@H](C(=O)N1CCC[C@H]1c1nc(-c2ccc(C#Cc3ccc4[nH]c([C@@H]5CC(=C6CC6)CN5C(=O)[C@@H](NC(=O)OC)C(C)C)nc4c3)cc2)c[nH]1)C(C)C [Example 334]	0.013	0.01 to 1
C=C1C[C@@H](c2nc(-c3ccc(C#Cc4ccc5[nH]c([C@@H]6CC(=C)CN6C(=O)[C@@H](NC(=O)OC)C(C)C)nc5c4)cc3)c[nH]2)N(C(=O)[C@@H](NC(=O)OC)C(C)C)C1 [Example 336]	0.0064	< 0.01
